Experimental data reported in patent publication US11274079B2 (DALIAN INSTITUTE OF CHEMICAL PHYSICS, CHINESE ACADEMY OF …, priority 2018, dated 2022).
Counter-ions that a name gives are not always drawn.

How the values were obtained:
[1] = molecular target: T1, M1 receptor (Homo sapiens, UniProt P11229); assay: DMR assay, antagonism of acetylcholine in CHO-K1 cells stably transfecting the M1 receptor; assay type: cell-based; details: for IC50: DMR, acetylcholine 1 μM, 1 h pretreatment, time point 5 min
T1 construct: expressed in transfected cells; host or cells: CHO-K1
T1 sequence (P11229 1-460): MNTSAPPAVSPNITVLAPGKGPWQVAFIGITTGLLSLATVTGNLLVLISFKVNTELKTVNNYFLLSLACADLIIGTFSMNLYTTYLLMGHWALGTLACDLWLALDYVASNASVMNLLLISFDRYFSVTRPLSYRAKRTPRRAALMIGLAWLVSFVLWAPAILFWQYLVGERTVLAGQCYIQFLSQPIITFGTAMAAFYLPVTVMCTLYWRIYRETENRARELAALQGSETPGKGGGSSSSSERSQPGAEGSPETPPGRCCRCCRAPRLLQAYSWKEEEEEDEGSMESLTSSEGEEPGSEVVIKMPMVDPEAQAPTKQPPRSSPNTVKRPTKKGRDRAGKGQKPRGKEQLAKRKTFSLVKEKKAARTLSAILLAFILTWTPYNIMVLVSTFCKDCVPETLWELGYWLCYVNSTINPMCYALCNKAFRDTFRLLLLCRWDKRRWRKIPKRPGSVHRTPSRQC
Experimental: (§1) The present invention relates to the antagonistic activity of the compound against the muscarinic receptor, which is primarily assessed by a cell-level dynamic mass redistribution (DMR) assay method. All tests are carried out on Epic platform, wherein the target model of the muscarinic receptor M1 is the CHO-K1 ceil model stably transfecting the M1 receptor, the target model of M3 is the HT-29 cell model endogenously highly expressing the M3 receptor, and the selected probe molecule is acetylcholine. Tire probe molecule acetylcholine is dissolved in water, while all other compounds are dissolved in DMSO.
(§2) The inoculated cell plate is placed in a cell incubator for culture for 12 h until the cell growth and fusion degree reaches about 95%, and the activity assay is carried out. The culture medium is sucked from the cultured ceils, the buffer salt specified by the test is added with a volume of 30 μL per orifice and is stabilized for 1 h. After the baseline is stable, a 2-min baseline is established, and different concentrations of compounds to be tested are added to test the cultured cells for 1 h. After the cells are pretreated with the compounds to be tested for 1 h, the 2-min baseline is re-established, and acetylcholine having a concentration of 1 μM is added to test the cultured cells for 1 h.

[2] = molecular target: T2, M3 receptor (Homo sapiens, UniProt P20309); assay: DMR assay, antagonism of acetylcholine in HT-29 cells endogenously expressing the M3 receptor; assay type: cell-based; details: for IC50: DMR, acetylcholine 16 μM, 1 h pretreatment, time point 30 min
T2 construct: HT-29 cell model endogenously highly expressing the M3 receptor; endogenous in cells; host or cells: HT-29
Experimental: as §1
as §2, with “20” for “12”, “cells,” for “ceils,”, “h.” for “h. After the cells are pretreated with the compounds to be tested for 1 h, the 2-min baseline is re-established, and acetylcholine having a concentration of 1 μM is added to test the cultured cells for 1 h.”

[3] = structure-activity comparison with parent compound

T2 sequence (P20309 whole entry): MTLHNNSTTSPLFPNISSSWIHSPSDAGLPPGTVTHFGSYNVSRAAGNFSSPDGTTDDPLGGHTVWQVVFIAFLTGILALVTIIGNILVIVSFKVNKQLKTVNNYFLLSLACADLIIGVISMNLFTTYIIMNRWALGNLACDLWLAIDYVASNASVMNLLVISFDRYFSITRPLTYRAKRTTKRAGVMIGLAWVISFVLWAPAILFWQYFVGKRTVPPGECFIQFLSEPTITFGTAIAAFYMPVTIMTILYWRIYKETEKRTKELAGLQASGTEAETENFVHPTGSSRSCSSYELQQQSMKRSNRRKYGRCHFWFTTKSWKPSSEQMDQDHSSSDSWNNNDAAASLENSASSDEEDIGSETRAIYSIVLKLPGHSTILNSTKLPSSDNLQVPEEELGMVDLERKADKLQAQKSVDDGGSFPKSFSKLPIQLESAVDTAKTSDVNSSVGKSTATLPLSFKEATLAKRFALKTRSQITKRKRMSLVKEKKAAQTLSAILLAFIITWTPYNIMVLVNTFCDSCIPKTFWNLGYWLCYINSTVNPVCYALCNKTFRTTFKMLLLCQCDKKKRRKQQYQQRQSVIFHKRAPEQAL

Compound: CCc1ccc(O)c(C(CC2CCCCN2C)c2ccccc2)c1 (stereo not drawn)
- DMR response signal of the compound itself ([1]; CHO-K1-M1 cells, FIG. 1): almost zero
- antagonistic activity against the M1 receptor, in words [1, 3]: the highest

Compound: 2-[2-(2-hydroxy-5-fluorophenyl)-phenylethyl]-N,N-dimethylpiperidine bromide [I-10b]
- IC50 ([2]; HT-29 cells): 109 ± 39.4 nM

Compound: 2-[2-(2-methyl p-toluenesulfonate group-5-methyl-phenyl)-phenethyl]-N,N-dimethylpiperidine Bromide [I-26]
- IC50 ([2]; HT-29 cells): 793 ± 69.7 nM

Compound: Cc1ccc(O)c(C(CC2CCCC[N+]2(C)CCCOc2ccccc2)c2ccccc2)c1.[Br-] (racemic) [I-4a-PrOPh, 2-[2-(2-hydroxy-5-methyl-phenyl)-phenethyl]-N-methyl, N-phenoxypropyl Piperidine Bromide]
- IC50 ([2]; HT-29 cells): 279 ± 128 nM
- antagonistic activity against the M3 receptor, in words [2, 3]: a significant decrease in activity
- IC50 ([1]; CHO-K1-M1 cells): 295 ± 136 nM

Compound: CN1CCCCC1CC(c1ccccc1O)c1ccccc1O (racemic) [II-3, 2-[2,2-bis(2-hydroxy-phenyl)-ethyl]-N-methylpiperidine]
- IC50 ([2]; HT-29 cells): 13.1 ± 1.9 nM
- IC50 ([1]; CHO-K1-M1 cells): 43.4 ± 10.6 nM

Compound: Cc1ccc(O)c(C(CC2CCCC[N+]2(C)C)c2ccccc2)c1 (single isomer, unassigned) [I-4b-Br, 2-[2-(2-hydroxy-5-methyl-phenyl)-phenethyl]-N,N-dimethylpiperidine Bromide]
- IC50 ([2]; HT-29 cells): 47.7 ± 11.9 nM
- IC50 ([1]; CHO-K1-M1 cells): 61 ± 21.8 nM

Compound: C[N+]1(C)CCCCC1CC(c1ccccc1)c1cc(F)ccc1O (single isomer, unassigned) [I-10a, 2-[2-(2-hydroxy-5-fluorophenyl)-phenylethyl]-N,N-dimethylpiperidine bromide]
- IC50 ([1]; CHO-K1-M1 cells): 13.2 ± 1.2 nM

Compound: C[N+]1(C)CCCCC1CC(c1ccccc1)c1cc(F)ccc1O (single isomer, unassigned) [I-10a-2, 2-[2-(2-hydroxy-5-fluorophenyl)-phenylethyl]-N,N-dimethylpiperidine bromide]
- IC50 ([2]; HT-29 cells): 82.9 ± 11.7 nM

Compound: C[N+]1(C)CCCCC1CC(c1ccccc1)c1cc(F)ccc1O (single isomer, unassigned) [I-10b, 2-[2-(2-hydroxy-5-fluorophenyl)-phenylethyl]-N,N-dimethylpiperidine bromide]
- IC50 ([2]; HT-29 cells): 12.1 ± 5.3 nM
- IC50 ([1]; CHO-K1-M1 cells): 23.2 ± 12.1 nM

Compound: C[N+]1(C)CCCCC1CC(c1ccccc1)c1cc(F)ccc1O (single isomer, unassigned) [I-10b-2, 2-[2-(2-hydroxy-5-fluorophenyl)-phenylethyl]-N,N-dimethylpiperidine bromide]
- IC50 ([2]; HT-29 cells): 164 ± 12.6 nM

Compound: CN1CCCCC1CC(c1ccccc1O)c1ccccc1O (single isomer, unassigned) [II-3-1, 2-[2,2-bis(2-hydroxy-phenyl)-ethyl]-N-methylpiperidine]
- IC50 ([2]; HT-29 cells): 15.4 ± 2.9 nM
- IC50 ([1]; CHO-K1-M1 cells): 30.4 ± 12.6 nM

Compound: CN1CCCCC1CC(c1ccccc1O)c1ccccc1O (single isomer, unassigned) [II-3-2, 2-[2,2-bis(2-hydroxy-phenyl)-ethyl]-N-methylpiperidine]
- IC50 ([2]; HT-29 cells): 67.3 ± 6.6 nM
- IC50 ([1]; CHO-K1-M1 cells): 53.4 ± 16.2 nM

Compound: CN1CCCCC1CC(c1ccccc1)c1cc(F)ccc1O (single isomer, unassigned) [II-10a, 2-[2-(2-hydroxy-5-fluorophenyl)-phenethyl]-N-methylpiperidine]
- IC50 ([2]; HT-29 cells): 49.3 nM
- IC50 ([1]; CHO-K1-M1 cells): 53.2 ± 12.5 nM

Compound: CN1CCCCC1CC(c1ccccc1)c1cc(F)ccc1O (single isomer, unassigned) [II-10b, 2-[2-(2-hydroxy-5-fluorophenyl)-phenethyl]-N-methylpiperidine]
- IC50 ([2]; HT-29 cells): 109 ± 39.4 nM
- IC50 ([1]; CHO-K1-M1 cells): 83.2 ± 22.8 nM

Compound: C[N+]1(C)CCCCC1CC(c1ccccc1)c1ccccc1O (stereo not drawn) [I-2a-2-Br, 2-[2-(2-hydroxy-phenyl)-phenethyl]-N,N-dimethylpiperidine Bromide]
- IC50 ([2]; HT-29 cells): 28.4 ± 6.1 nM
- IC50 ([1]; CHO-K1-M1 cells): 33.8 ± 8.6 nM

Compound: C[N+]1(C)CCCCC1CC(c1ccccc1)c1ccccc1O (stereo not drawn) [I-2a-I, 2-[2-(2-hydroxy-phenyl)-phenethyl]N,N-dimethylpiperidine Iodide]
- IC50 ([2]; HT-29 cells): 25.6 ± 1.9 nM
- IC50 ([1]; CHO-K1-M1 cells): 16.5 ± 1.8 nM

Compound: CN1CCCCC1CC(c1ccccc1O)c1ccccc1O (stereo not drawn) [I-3-Cl, 2-[2,2-bis(2-hydroxyphenyl)-ethyl]-N-methylpiperidine Hydrochloride]
- IC50 ([2]; HT-29 cells): 66.2 ± 51.8 nM
- IC50 ([1]; CHO-K1-M1 cells): 402 ± 185 nM

Compound: C[N+]1(C)CCCCC1CC(c1ccccc1O)c1ccccc1O (stereo not drawn) [I-3-I, 2-[2,2-bis(2-hydroxyphenyl)ethyl]-N,N-dimethylpiperidine Iodide]
- IC50 ([2]; HT-29 cells): 6.9 ± 1.3 nM
- IC50 ([1]; CHO-K1-M1 cells): 63.5 ± 15.1 nM

Compound: Cc1ccc(O)c(C(CC2CCCC[N+]2(C)C)c2ccccc2)c1 (stereo not drawn) [I-4B-2-Br, 2-[2-(2-hydroxy-5-methyl-phenyl)-phenethyl]-N,N-dimethylpiperidine Bromide]
- IC50 ([2]; HT-29 cells): 217 ± 37.9 nM
- IC50 ([1]; CHO-K1-M1 cells): 157 ± 61.6 nM

Compound: Cc1ccc(O)c(C(CC2CCCC[N+]2(C)C)c2ccccc2)c1 (stereo not drawn) [I-4a-2-Br, 2-[2-(2-hydroxy-5-methyl-phenyl)-phenethyl]-N,N-dimethylpiperidine Bromide]
- IC50 ([2]; HT-29 cells): 1210 ± 120 nM
- IC50 ([1]; CHO-K1-M1 cells): 832 ± 132 nM

Compound: Cc1ccc(O)c(C(CC2CCCC[N+]2(C)C)c2ccccc2)c1 (stereo not drawn) [I-4a-I, 2-[2-(2-hydroxy-5-methyl-phenyl)-phenethyl]-N,N-dimethylpiperidine Iodide]
- IC50 ([2]; HT-29 cells): 9.3 ± 1 nM
- IC50 ([1]; CHO-K1-M1 cells): 13.8 ± 1.5 nM

Compound: Cc1ccc(O)c(C(CC2CCCC[N+]2(C)C)c2ccccc2)c1 (stereo not drawn) [I-4b-1-Br, 2-[2-(2-hydroxy-5-methyl-phenyl)-phenethyl]-N,N-dimethylpiperidine Bromide]
- IC50 ([2]; HT-29 cells): 27.1 ± 5.3 nM
- IC50 ([1]; CHO-K1-M1 cells): 47.5 ± 13.5 nM

Compound: CCc1ccc(O)c(C(CC2CCCC[N+]2(C)C)c2ccccc2)c1 (stereo not drawn) [I-5-Br, 2-[2-(2-hydroxy-5-ethyl-phenyl)-phenethyl]-N,N-dimethylpiperidine Bromide]
- IC50 ([2]; HT-29 cells): 10.5 ± 1.1 nM
- IC50 ([1]; CHO-K1-M1 cells): 45.6 ± 7.8 nM

Compound: CCc1ccc(O)c(C(CC2CCCC[N+]2(C)C)c2ccccc2)c1 (stereo not drawn) [I-5-I, 2-[2-(2-hydroxy-5-ethyl-phenyl)-phenethyl]-N,N-dimethylpiperidine Iodide]
- IC50 ([2]; HT-29 cells): 18.8 ± 2.3 nM
- IC50 ([1]; CHO-K1-M1 cells): 20 ± 2.3 nM

Compound: CCCc1ccc(O)c(C(CC2CCCC[N+]2(C)C)c2ccccc2)c1 (stereo not drawn) [I-6, 2-[2-(2-hydroxy-5-propyl-phenyl)-phenethyl]-N,N-dimethylpiperidine Bromide]
- IC50 ([2]; HT-29 cells): 20.3 ± 3.6 nM
- IC50 ([1]; CHO-K1-M1 cells): 133 ± 22.8 nM

Compound: C[N+]1(C)CCCCC1CC(c1ccccc1)c1ccc(F)cc1O (stereo not drawn) [I-8, 2-[2-(2-hydroxy-4-fluorophenyl)-phenethyl]-N,N-dimethylpiperidine bromide]
- IC50 ([2]; HT-29 cells): 97.2 ± 21.1 nM
- IC50 ([1]; CHO-K1-M1 cells): 113 ± 41.2 nM

Compound: COc1ccc(O)c(C(CC2CCCC[N+]2(C)C)c2ccccc2)c1 (stereo not drawn) [I-9, 2-[2-(2-hydroxy-5-methoxyphenyl)-phenethyl]-N,N-dimethylpiperidine Bromide]
- IC50 ([2]; HT-29 cells): 160 ± 20.3 nM
- IC50 ([1]; CHO-K1-M1 cells): 100 ± 10.2 nM

Compound: C[N+]1(C)CCCCC1CC(c1ccccc1)c1cc(F)ccc1O (stereo not drawn) [I-10b-1, 2-[2-(2-hydroxy-5-fluorophenyl)-phenylethyl]-N,N-dimethylpiperidine bromide]
- IC50 ([2]; HT-29 cells): 35.2 ± 6.3 nM

Compound: Cc1ccc(O)c(C(CC2CCCC[N+]2(C)C)c2ccc(Cl)cc2)c1 (stereo not drawn) [I-14, 2-[2-(4-chlorophenyl)-2-(2-hydroxy-5-methylphenyl)-ethyl]-N,N-dimethylpiperidine Bromide]
- IC50 ([2]; HT-29 cells): 87.2 ± 36.5 nM
- IC50 ([1]; CHO-K1-M1 cells): 79.2 ± 36.9 nM

Compound: Cc1ccc(C(CC2CCCC[N+]2(C)C)c2cc(C)ccc2O)cc1 (stereo not drawn) [I-15, 2-[2-(4-tolyl)-2-(2-hydroxy-5-methyl-phenyl)-ethyl]-N,N-dimethylpiperidine Bromide]
- IC50 ([2]; HT-29 cells): 78 ± 31 nM
- IC50 ([1]; CHO-K1-M1 cells): 48.3 ± 11 nM

Compound: CN1CCCCC1CC(c1ccccc1)c1ccccc1O (stereo not drawn) [II-2a, 2-[2-(2-hydroxy-phenyl)phenethyl]-N-methylpiperidine]
- DMR response signal of the compound itself ([2]; HT-29 cells, FIG. 2): almost zero

Compound: CCCCCOc1ccc(O)c(C(CC2CCCCN2C)c2ccccc2)c1 (stereo not drawn) [II-12, 2-[2-(2-hydroxy-5-pentyloxy-phenyl)-phenethyl]-N-methylpiperidine]
- IC50 ([2]; HT-29 cells): 620 ± 49.4 nM

Compound: CN1CCCCC1CC(c1ccccc1)c1cc(C(F)(F)F)ccc1O (stereo not drawn) [II-13, 2-[2-(2-hydroxy-5-trifluoromethyl-phenyl)-phenethyl]-N-methylpiperidine]
- IC50 ([2]; HT-29 cells): 249 ± 9.8 nM

Compound: CCc1cccc(C(CC2CCCCN2C)c2cc(C(C)C)cc(C)c2O)c1 (stereo not drawn) [II-16, 2-[2-(2-hydroxy-3-methyl-5-isopropylphenyl)-2-(3-ethylphenyl)-ethyl]-N-methylpiperidine]
- IC50 ([2]; HT-29 cells): 371 ± 67.8 nM

Compound: Cc1ccc(O)c(C(CC2CCCCN2C)c2ccsc2)c1 (stereo not drawn) [II-22, 2-[2-(3-thienyl)-2-(2-hydroxy-5-methyl-phenyl)-ethyl]-N-methylpiperidine]
- IC50 ([2]; HT-29 cells): 20.7 ± 3.6 nM
